Test results reported in US20150299796A1, “PREDICTION OF TREATMENT RESPONSE TO JAK/STAT INHIBITOR” (priority 2012, published 2015).

Experiments:
[1] = system: pSTAT5; test: Phospho-STAT5 western blot in hematologic tumor cell lines after treatment; type: cell-based; details: 0.2 μM or 1 μM, 4 hr and 24 hr
Procedure: (§1) […] hematologic tumor cell lines (5 positive for pSTAT5 (AML-193, Hel 92.1.7, Set2, TF-1 and UKE-1) and 4 negative for pSTAT5 (RPM18226, U937, Relt and PL-21) were treated with (R)-3-cyclopentyl-3-[4-(7H-pyrrolo[2,3-d]pyrimidin-4-yl)-1H-pyrazol-1-yl]propanenitrilem, 0.2 μM or 1 μM, and samples were collected at 4 hr and 24 hr after treatment. Phospho-STAT5 was examined by western blot analysis, and the expression of the four signature genes was determined by qPCR. The RNA expression level (ΔCt) of each individual gene in the signature was determined by subtracting the average Ct for the signature gene from the average Ct of the two housekeeper genes (GUSB and TBP). For the normalized relative expression levels the DMSO control treatment ΔCt were set to one and all other treatments the gene Ct values are relative to this value.

[2] = system: four signature genes (PIM1, CISH, SOCS2, ID1); test: qPCR expression of the four signature genes in hematologic tumor cell lines after treatment; type: cell-based; details: 0.2 μM or 1 μM, 4 hr and 24 hr
Procedure: as §1

[3] = system: UKE-1 tumor xenograft; test: UKE-1 tumor xenograft study, modulation of 4-gene signature in tumor; type: in vivo, female NOD.SCID mice; details: single dose P.O. 60 mg/kg; tumor samples at 4 and 24 hours (FIG. 6)
Procedure: The modulation of gene signature by (R)-3-cyclopentyl-3-[4-(7H-pyrrolo[2,3-d]pyrimidin-4-yl)-1H-pyrazol-1-yl]propanenitrile (ruxolitinib) was further examined in vivo. UKE-1 cells were implanted in female NOD.SCID mice (Harlan) at 1x10e7 cells/mouse. Single dose of (R)-3-cyclopentyl-3-[4-(7H-pyrrolo[2,3-d]pyrimidin-4-yl)-1H-pyrazol-1-yl]propanenitrile was administered P.O. at 60 mg/kg when tumors reached ˜500 mg. Tumor samples were collected at 4 and 24 hours after treatment. The modulation of pSTAT5 in tumor lysate was examined by Western.

[4] = pSTAT5 negative cell lines (RPMI 8226 in FIG. 2A)
[5] = pSTAT5 positive cell lines (TF-1 in FIG. 2B)

Q: Which pSTAT5 modulation [1, 4] does the source give for `N#CC[C@H](C1CCCC1)n1cc(-c2ncnc3[nH]ccc23)cn1` [(R)-3-cyclopentyl-3-[4-(7H-pyrrolo[2,3-d]pyrimidin-4-yl)-1H-pyrazol-1-yl]propanenitrile] here?
A: no clear effect

Q: What about the pSTAT5 modulation [1, 5] of the same molecule?
A: down-modulated pSTAT5

Q: What about the “changes in signature gene expression” value [2, 4] of the same molecule?
A: no clear effect

Q: What about the “expression of the signature genes” value [2, 5] of the same molecule?
A: corresponding reduction of the expression of the signature genes

Q: What about the “modulation of 4-gene signature in tumor” value [3] of the same molecule?
A: consistent to that observed in vitro
